Source: PMC6053381, “Novel 2-phenyloxypyrimidine derivative induces apoptosis and autophagy via inhibiting PI3K pathway and activating MAPK/ERK signaling in hepatocellular carcinoma cells” (Scientific Reports, 2018)

Tests used:
[1] = molecular target: BLK (Homo sapiens, UniProt P51451); assay: Kinase profiling (Kinase-Glo Plus or ADP-Glo); type: biochemical; conditions: averages of two separate experiments
Method: (§1) To better characterize kinase inhibition, the ability of E5 to inhibit a panel of purified kinases was assessed.
(§2) PDGFR kinase activity was measured using Caliper microfluidic mobility shift technology. Briefly, 2 μL compound solution (25 μM) in 25% DMSO per well were added into the 384 well microtiter plates. Then, 10 μL per well of enzyme solution (100 mM HEPES, 10 mM MgCl2, Brij35 (30%) 100 μL, 1 mM DTT, 20 ng enzyme) was added. After a brief centrifugation at 1,000 rpm, the kinase reactions were started by addition of 38 μL per well of peptide/ATP-solution (40 μM ATP, 6.5 μM peptide 5′-FAM-KKKKEEIYFFF-NH2, Tris-HCl buffer, pH 7.0) incubated at 30 °C for 60 min and stopped by the addition of 20 μL 35 mM EDTA per well. The electrophoretic separation of the phosphorylated and non-phosphorylated peptides was then carried out on LabChip EZ Reader II (Caliper Life Sciences). All other kinase reactions were carried out as previously reported using the Kinase-Glo Plus or ADP-Glo assay. Kinase inhibition rates were calculated per manufacturer’s instructions.

[2] = molecular target: CSF1R (Homo sapiens, UniProt P07333); assay: Kinase profiling (Kinase-Glo Plus or ADP-Glo); type: biochemical; conditions: averages of two separate experiments
Chain of CSF1R (P07333 20-972): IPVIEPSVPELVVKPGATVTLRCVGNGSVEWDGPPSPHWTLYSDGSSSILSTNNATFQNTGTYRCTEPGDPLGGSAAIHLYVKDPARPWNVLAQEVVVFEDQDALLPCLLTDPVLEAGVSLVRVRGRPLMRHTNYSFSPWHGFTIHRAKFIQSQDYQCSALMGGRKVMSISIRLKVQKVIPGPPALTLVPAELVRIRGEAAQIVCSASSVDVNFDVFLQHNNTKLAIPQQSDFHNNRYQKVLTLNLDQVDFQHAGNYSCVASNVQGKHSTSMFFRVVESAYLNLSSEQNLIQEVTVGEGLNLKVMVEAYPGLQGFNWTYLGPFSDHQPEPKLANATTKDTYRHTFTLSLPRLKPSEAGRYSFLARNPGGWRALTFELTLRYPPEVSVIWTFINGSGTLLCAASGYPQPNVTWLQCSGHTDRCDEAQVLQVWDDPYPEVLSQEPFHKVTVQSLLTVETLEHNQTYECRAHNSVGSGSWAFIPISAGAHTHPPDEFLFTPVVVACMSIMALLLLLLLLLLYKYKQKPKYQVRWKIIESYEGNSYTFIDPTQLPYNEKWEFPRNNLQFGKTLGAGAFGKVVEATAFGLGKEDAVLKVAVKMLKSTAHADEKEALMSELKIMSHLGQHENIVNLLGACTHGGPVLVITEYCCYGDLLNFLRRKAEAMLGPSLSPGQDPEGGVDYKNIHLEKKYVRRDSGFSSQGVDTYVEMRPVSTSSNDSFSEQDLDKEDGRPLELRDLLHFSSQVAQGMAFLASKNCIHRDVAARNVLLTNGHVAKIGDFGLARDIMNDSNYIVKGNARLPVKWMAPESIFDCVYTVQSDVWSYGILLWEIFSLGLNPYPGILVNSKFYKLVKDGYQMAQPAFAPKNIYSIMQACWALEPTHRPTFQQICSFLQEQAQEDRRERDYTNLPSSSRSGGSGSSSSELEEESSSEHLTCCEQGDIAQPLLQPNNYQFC
Method: as §1, §2

[3] = tested on: Bel7404 cells; assay: MTT cell viability assay; type: cell-based; conditions: Homo sapiens
Method: (§3) To reconfirm the biological activity, we chose the most sensitive cell line Bel7404 from cellular assay and the widely used and the most characterized cell line HepG2 to examine the effects of E5 on cell proliferation by MTT assay. […] Given that cell cycle arrest plays a significant role in inhibiting cancer cell growth, we subsequently examined the effects of E5 on cell cycle distribution of Bel7404 and HepG2 cells.
(§4) Cell viability was measured by methyl thiazolyl tetrazolium (MTT) assay. Cells were seeded in 96-well plate at a density of 1 × 10^4 cells/well. After overnight incubation, solution of E5 in DMSO with incremental concentrations (0–30 μM) were added to the cells and further incubated for 3 days. During this period, three wells were selected from each group of cells every day for the MTT (50 μg/well) assay. After the cells had been incubated at 37 °C for 4 h, the reaction was stopped by adding 150 μL/well of DMSO, and incubating for 10 min. The absorbance was measured at a wavelength of 490 nm by a Microplate Reader (BioTek, USA).

[4] = tested on: HepG2 cells; assay: MTT cell viability assay; type: cell-based; conditions: Homo sapiens
Method: as §3, §4

[5] = tested on: Bel7404 cells; assay: Apoptosis by Annexin V/PI flow cytometry; type: cell-based; conditions: 24 h, Annexin V/PI double staining
Method: (§5) We next explored the apoptosis-inducing ability of E5 in HCC cells. Bel7404 and HepG2 cells were treated with E5 for 24 h and stained with the fluorescent DNA-binding dye, Hoechst 33258. The cells were brightly stained in a dose-dependent manner, showing a typical morphological sign of apoptosis (Fig. 5A). […] Furthermore, E5 induced a specific cleavage of PARP and a decrease of pro-form of caspase-3, caspase-7 and caspase-9 (Fig. 5C). […] In addition, the pan-caspase inhibitor Z-VAD-FMK partially rescued the viability of HCC cells reduced by E5, implying that E5 might also induce non-apoptotic form of cell death (Fig. 5D).
(§6) Cells were incubated with E5 for 24 h, after which cells were washed, stained and subjected to flow cytometry analysis. The cell cycle was analyzed by staining with propidium iodide (PI), and the extent of cell death/apoptosis was evaluated by double staining with annexin V-FITC and PI. The fluorescence was measured with a FACScan flow cytometer (Becton Dickinson, USA).

[6] = tested on: HepG2 cells; assay: Apoptosis by Annexin V/PI flow cytometry; type: cell-based; conditions: 24 h, Annexin V/PI double staining
Method: as §5, §6

[7] = tested on: Bel7404 cells; assay: Autophagy: LC3-I to LC3-II conversion, Western blot; type: cell-based
Text: (§7) To investigate whether E5 triggers autophagic cell death in HCC cells, several characteristic events of autophagy were examined using different techniques. First, E5 stimulated LC3 puncta formation in HCC cells transfected with adenovirus expressing GFP-LC3 fusion protein as detected by fluorescence microscopy (Fig. 6A). […] Third, the effects of E5 on autophagy flux was examined by co-treatment of E5 with chloroquine (CQ), an inhibitor that prevents the formation of autolysosomes by inhibiting autophagosome-lysosome fusion and […] degradation. […] Fourth, E5 increased the expression of Atg5, which is essential for the elongation of autophagosomes (Fig. 6B), and the cell viability by E5 treatment was increased in HCC cells by knockdown of Atg5 (Fig. 6E). Finally, treatment with 3-methyladenine (3-MA), an autophagy inhibitor, partially reversed E5-induced cell death in HCC cells (Fig. 6F).
(§8) After treatment with E5 for 24 h, cells were lysed in RIPA cell lysis buffer. Equal amount of protein (30–40 μg) was separated on a 12% or 15% SDS-PAGE and transferred electrophoretically onto a 0.45 μm PVDF membrane. Then, the membrane was blocked for 2 h at room temperature with 5% non-fat dried milk in TBS buffer and incubated with appropriate antibodies at 1:1000 (overnight, 4 °C). […]

[8] = tested on: HepG2 cells; assay: as above; type: cell-based
Text: as §7, §8

Chain of BLK (P51451 whole entry, species assumed): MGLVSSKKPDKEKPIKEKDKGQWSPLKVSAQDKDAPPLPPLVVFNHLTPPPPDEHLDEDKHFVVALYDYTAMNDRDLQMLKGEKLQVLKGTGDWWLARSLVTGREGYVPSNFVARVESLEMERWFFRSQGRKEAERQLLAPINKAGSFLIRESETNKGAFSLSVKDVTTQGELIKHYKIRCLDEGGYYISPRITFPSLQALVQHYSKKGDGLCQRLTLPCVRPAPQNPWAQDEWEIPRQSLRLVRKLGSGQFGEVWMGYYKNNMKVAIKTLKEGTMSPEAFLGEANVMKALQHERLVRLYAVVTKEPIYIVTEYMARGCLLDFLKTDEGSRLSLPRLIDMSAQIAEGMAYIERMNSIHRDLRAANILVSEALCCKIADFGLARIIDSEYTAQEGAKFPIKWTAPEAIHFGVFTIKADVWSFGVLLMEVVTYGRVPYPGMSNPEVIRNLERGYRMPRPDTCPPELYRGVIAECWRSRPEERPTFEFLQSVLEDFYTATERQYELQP

IC50 [1]: > 25 µM | IC50 [2]: 1.12 µM | IC50 CSF1R [2]: moderate inhibitory activity | IC50 ([3]; BEL-7404, 24 h): 18.2 ± 2.38 µM | IC50 ([3]; BEL-7404, 48 h): 9.68 ± 1.46 µM | IC50 ([3]; BEL-7404, 72 h): 6.62 ± 0.15 µM | IC50 ([4]; HepG2, 24 h, 24 h): 8.49 ± 0.82 µM | IC50 ([4]; HepG2, 48 h, 48 h): 5.44 ± 0.23 µM | IC50 ([4]; HepG2, 72 h, 72 h): 4.72 ± 0.96 µM
Structure (SMILES): Cc1ccc(NC(=O)c2ccc(CN3CCN(C)CC3)cc2)cc1Oc1nccc(-c2cc3ccccc3o2)n1 [E5, N-(3-((4-(benzofuran-2-yl)pyrimidin-2-yl)oxy)-4-methylphenyl)-4-((4-methylpiperazin-1-yl)methyl)benzamide]
Apoptosis induction [5]: induced apoptosis in a dose-dependent manner | Apoptosis induction [6]: induced apoptosis in a dose-dependent manner | Conversion of LC3-I to LC3-II [7]: induced the conversion of LC3-I to LC3-II in a dose- and time-dependent manner | Conversion of LC3-I to LC3-II [8]: induced the conversion of LC3-I to LC3-II in a dose- and time-dependent manner
